The values below come from BindingDB's records for patent US9932341 (Incyte, 2018).

This experiment addresses T1, Phosphatidylinositol 4,5-bisphosphate 3-kinase catalytic subunit delta isoform (Homo sapiens, UniProt O00329).
T1 sequence (O00329 whole entry): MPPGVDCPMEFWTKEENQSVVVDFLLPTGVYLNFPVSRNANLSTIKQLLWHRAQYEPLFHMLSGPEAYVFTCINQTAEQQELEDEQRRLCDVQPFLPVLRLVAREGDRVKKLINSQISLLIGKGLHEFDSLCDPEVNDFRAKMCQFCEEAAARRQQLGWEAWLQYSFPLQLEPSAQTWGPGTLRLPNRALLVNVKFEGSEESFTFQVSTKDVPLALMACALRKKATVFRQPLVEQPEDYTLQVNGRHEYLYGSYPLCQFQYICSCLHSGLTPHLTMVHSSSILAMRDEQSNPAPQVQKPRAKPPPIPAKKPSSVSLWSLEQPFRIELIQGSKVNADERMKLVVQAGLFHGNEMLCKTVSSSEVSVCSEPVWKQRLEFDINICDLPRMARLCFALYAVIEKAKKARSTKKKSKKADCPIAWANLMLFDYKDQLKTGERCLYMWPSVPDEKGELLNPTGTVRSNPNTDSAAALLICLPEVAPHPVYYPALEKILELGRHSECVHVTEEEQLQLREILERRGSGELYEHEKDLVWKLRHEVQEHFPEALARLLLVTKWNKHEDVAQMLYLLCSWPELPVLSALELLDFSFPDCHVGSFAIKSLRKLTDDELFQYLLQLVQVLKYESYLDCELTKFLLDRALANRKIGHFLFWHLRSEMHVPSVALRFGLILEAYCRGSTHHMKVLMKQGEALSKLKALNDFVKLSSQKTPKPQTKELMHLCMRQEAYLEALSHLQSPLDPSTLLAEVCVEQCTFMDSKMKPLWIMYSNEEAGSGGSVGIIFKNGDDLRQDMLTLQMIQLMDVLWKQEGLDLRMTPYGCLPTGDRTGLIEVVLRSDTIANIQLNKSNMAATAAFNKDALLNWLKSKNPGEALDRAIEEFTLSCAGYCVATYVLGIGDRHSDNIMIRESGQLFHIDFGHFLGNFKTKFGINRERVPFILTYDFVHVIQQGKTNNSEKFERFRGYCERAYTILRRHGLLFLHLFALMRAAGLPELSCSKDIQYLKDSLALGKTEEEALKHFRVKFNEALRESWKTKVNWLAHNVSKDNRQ
Kind of experiment: Scintillation Proximity Assay. The procedure:
The kinase reaction was conducted in polystyrene 384-well matrix white plate from Thermo Fisher Scientific in a final volume of 25 uL. Inhibitors were first diluted serially in DMSO and added to the plate wells before the addition of other reaction components. The final concentration of DMSO in the assay was 0.5%. The PI3K assays were carried out at room temperature in 20 mM MOPS, pH 6.7, 10 mM MgCl2, 5 mM DTT and CHAPS 0.03%. Reactions were initiated by the addition of ATP, the final reaction mixture consisted of 20 uM PIP2, 20 uM ATP, 0.2 uCi [γ-33P] ATP, 4 nM PI3K . […] 25 mM EDTA, 400 uM ATP. The final concentration of SPA beads was 1.0 mg/mL. After the plate sealing, plates were shaken overnight at room temperature and centrifuged at 1800 rpm for 10 minutes, the radioactivity of the product was determined by scintillation counting on Topcount (PerkinElmer).
(In general: Scintillation proximity formats need no separation of bound from free tracer.)

pIC50: −log10 of the molar value.

With `COc1c(C(C)n2nc(C)c3c(N)ncnc32)cc(Cl)c(C)c1-c1ccc(C(=O)N(C)CCO)nc1` (configuration not stated) [US9932341, Example 24], the pIC50 was > 8.00. As for `COc1c(C(C)n2nc(C)c3c(N)ncnc32)cc(Cl)c(C)c1-c1cncnc1` (configuration not stated) [US9932341, Example 168], the pIC50 was > 8.00.

Usually pIC50 stands for −log10 of the IC50, conventionally taken in molar units. A higher pIC50 goes with a small IC50.
